From paper PMC12152883, “Bile acids inhibit equilibrative adenosine transport to alter adenosine receptor signaling in cholestasis” (The Journal of Biological Chemistry, 2025)
“And” between values parts separate entries of the source, which are not always exact repeats. Equal values may be shown once. Read-outs that look alike come from different tables or passages of the source.

Columns and labels:
[1] = biological target: T1, ENT3 (Homo sapiens, UniProt Q9BZD2); design: method as in PMID 33623001; settings: previous studies, cited from earlier work; for Km: read-out: Km of BA transport by ENT3
T1 construct: plasma membrane–directed ENT3 with a truncated N-terminus (that harbors lysosomal targeting motif); expressed in transfected cells; host or cells: Xenopus laevis oocytes injected with in vitro-transcribed mRNA from pOX-Δ36hENT3
T1 sequence (Q9BZD2 with tags, fused parts or gaps): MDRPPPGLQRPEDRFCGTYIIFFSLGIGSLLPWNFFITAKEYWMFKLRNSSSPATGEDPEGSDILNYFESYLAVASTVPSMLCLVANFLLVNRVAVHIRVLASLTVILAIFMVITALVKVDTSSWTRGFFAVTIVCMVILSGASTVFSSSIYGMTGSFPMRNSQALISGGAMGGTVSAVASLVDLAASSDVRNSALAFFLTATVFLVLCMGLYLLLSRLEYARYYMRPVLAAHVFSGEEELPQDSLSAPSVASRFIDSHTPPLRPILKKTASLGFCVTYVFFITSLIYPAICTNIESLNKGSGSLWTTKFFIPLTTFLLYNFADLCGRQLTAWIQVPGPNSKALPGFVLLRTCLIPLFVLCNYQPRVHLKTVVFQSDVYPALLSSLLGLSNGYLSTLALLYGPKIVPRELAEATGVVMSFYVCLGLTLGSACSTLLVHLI

[2] = biological target: T2, ENT2 (Homo sapiens, UniProt Q14542); assay: BA transport by ENT2-injected oocytes quantified by LC-MS/MS; format: cell-based; design: expressed in transfected cells; host or cells: Xenopus laevis oocytes injected with in vitro-transcribed capped mRNA from pOX-hENT2; settings: pH 7.4, p < 0.001 compared with water-injected oocytes
T2 sequence (Q14542 1-456): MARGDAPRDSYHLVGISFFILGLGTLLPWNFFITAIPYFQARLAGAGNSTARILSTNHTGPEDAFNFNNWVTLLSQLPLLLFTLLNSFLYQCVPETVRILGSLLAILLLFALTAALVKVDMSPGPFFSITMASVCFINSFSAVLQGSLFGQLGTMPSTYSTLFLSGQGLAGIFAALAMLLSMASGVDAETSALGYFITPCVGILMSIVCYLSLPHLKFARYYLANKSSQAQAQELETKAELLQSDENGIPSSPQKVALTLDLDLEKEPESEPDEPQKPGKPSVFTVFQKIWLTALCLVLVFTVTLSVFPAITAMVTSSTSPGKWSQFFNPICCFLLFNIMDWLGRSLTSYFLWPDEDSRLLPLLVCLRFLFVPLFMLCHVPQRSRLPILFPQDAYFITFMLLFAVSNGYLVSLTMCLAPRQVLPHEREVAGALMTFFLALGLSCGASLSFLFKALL
Method: Therefore, we studied several different BAs and used a liquid chromatography–tandem mass spectrometry (LC‒MS/MS) method to quantify the transport activity of H2O-injected and ENT2 mRNA-injected oocytes using TCA as a positive control. […] We subsequently tested the ability of ENT2 to transport BAs at different physiological pH values ranging from pH 5.5 to pH 7.4 by varying the pH of the transport buffers in which the assay was conducted.
The mass spectrometric validation of the transport of all metabolites was performed with oocytes using a previously reported method ([24]). […] After an incubation at 4 °C for 24 h, the samples were centrifuged at 20,000g for 10 min, and the supernatants were collected. The samples (10 μl) were injected into a Thermo Scientific Vanquish UPLC system interfaced with a Thermo Scientific TSQ Quantiva triple-stage quadrupole mass spectrometer equipped with an H-ESI ion source. MS detection was conducted in negative ionization mode, and the transitions monitored for each metabolite are listed in Sup. Table S2. The operational mass spectrometric parameters included a capillary voltage of 4.5 kV; sheath gas of 35 arbitrary units; auxiliary gas of 10 arbitrary units; sweep gas of two arbitrary units; ion transfer tube temperature of 350 °C; vaporizer temperature of 450 °C; dwell time of 50 ms per transition; collision energy of 5 V; and collision-induced dissociation gas of 1.5 mTorr. Chromatographic separation was performed on a Kinetex […] (100 × 2.1 mm; 1.7 μm particle size) from Phenomenex. The mobile phase consisted of solvent A: water (0.1% formic acid) and solvent B: acetonitrile (0.1% formic acid). The flow rate was set at 0.3 ml/min, and the autosampler was maintained at 4 °C throughout the analysis.

[3] = biological target: T2, ENT2; assay: Inhibition of 3H-nucleoside influx by BAs in ENT2-expressing Xenopus oocytes; format: cell-based; design: expressed in transfected cells; host or cells: Xenopus laevis oocytes injected with in vitro-transcribed capped mRNA from pOX-hENT2
Source text: We expressed individual ENTs (ENT1, ENT2, and ENT3) in X. laevis oocytes (as described above) and analyzed the Ado influx from each of the ENTs in the presence of different BAs to better understand whether the inhibition profiles differ across human ENTs. […] We also conducted an analysis of the concentration-dependent inhibition of Ado transport to estimate the IC50 values of the BAs (Fig. 4, D–F and Table 2).
Inhibition of Ado influx in H2O- and ENT-injected oocytes by treatment with different BAs at 100 μM. D–F, concentration-dependent inhibition of Ado influx in ENT-injected oocytes by different BAs. The bars represent the mean ± SD (n = 8–12 oocytes). A representative experiment from 3 to 5 independent experiments is presented. Statistical analysis was performed using one-way ANOVA with Dunnett’s multiple comparisons test; ∗p < 0.032, ∗∗p < 0.0021, ∗∗∗∗p < 0.0001.
The generated pOX expression constructs were linearized with either the Not1 or Sac1 restriction enzymes. The digested products were purified via phenol‒chloroform extraction. The mRNAs were synthesized using mMESSAGE mMACHINE (Ambion) transcription kits according to the manufacturer’s instructions. The mRNAs were purified via lithium precipitation. Oocytes were procured from Ecocyte. Prior to experiments, procured oocytes were defolliculated by treating with collagenase A-OR II solution followed by washing with Barth’s solution. Following microscopic verification, selected oocytes were incubated to recover overnight at 25 °C in a shaker incubator. Fifty nanoliters (400–800 ng/μl) of equal amounts of mRNAs were injected into defolliculated oocytes the next day. Expression of plasmids was analyzed after RNA isolation from oocyte extracts and conducting qPCR analysis with gene-specific primers as described earlier ([30]). The injected oocytes were incubated at 15 °C for 24 h before transport assays were performed. […] Uptake was terminated by washing the oocytes three times with arrest buffer containing 20 mM uridine. Individual oocytes were shaken overnight in 10% SDS for complete dissolution, and then the radioactivity was quantified with a Beckman liquid scintillation counter. The data are presented as the mean ± SD (n = 8–12 oocytes). A representative experiment from 3 to 5 independent experiments is presented.

[4] = 3H-Ado 20 μM, sodium-free buffer, read-out: ENT2 IC50 (Ado uptake)
[5] = BA 100 μM, 3H-Ado 20 μM, sodium-free buffer

Row | Compound | Vmax of BA transport by ENT3 [1] [pmol/30 min/oocyte] | Km [1] [µM] | transport by ENT2 mRNA-injected vs water-injected oocytes (LC-MS/MS) [2] | IC50 [3, 4] [µM] | ENT2 % uptake inhibition (Ado) [3, 5] | inhibition of guanosine transport mediated by ENT2 ([3]; BA 100 μM, 3H-guanosine 20 μM) | inhibition of ENT2-mediated uridine uptake ([3]; BA 100 μM, 3H-uridine 20 μM) | IC50 [3] [µM]
1 | C[C@H](CCC(=O)O)[C@H]1CC[C@H]2[C@@H]3[C@H](O)C[C@@H]4C[C@H](O)CC[C@]4(C)[C@H]3C[C@H](O)[C@]12C [CA, cholic acid] | 3.07 ± 0.04 | 168 ± 13.3 | significant transport | 7.1 ± 1.6 | 74.58% | – | – | –
2 | C[C@H](CCC(=O)O)[C@H]1CC[C@H]2[C@@H]3CC[C@@H]4C[C@H](O)CC[C@]4(C)[C@H]3C[C@H](O)[C@]12C [DCA, deoxycholic acid] | 3.4 ± 0.06 | 270 ± 24.3 | – | 0.9 ± 0.2 | 65% and 64.77% | not statistically significant | inhibition of the ENT2-mediated uridine uptake | –
3 | C[C@H](CCC(=O)NCCS(=O)(=O)O)[C@H]1CC[C@H]2[C@@H]3[C@H](O)C[C@@H]4C[C@H](O)CC[C@]4(C)[C@H]3C[C@H](O)[C@]12C [TCA, taurocholic acid] | – | – | significant transport | – | 70.68% | – | – | 19.5 ± 4.5
